The source of these data is patent US6479519B1, “Substituted anilides” (Aventis Pharma Limited, priority 1997, dated 2002).

In general, melting point refers to the temperature, or range, at which the solid turns liquid.

Molecules are shown by their SMILES.

As for `COc1cc(CC(=O)Nc2ccc([C@@H](CC(=O)O)NC(=O)c3ccc[n+]([O-])c3)cc2)ccc1NC(=O)Nc1ccccc1C` [Example 11, (R)-3-[(1-oxido-pyridine-3-carbonyl)amino]-3-(4-{3-methoxy-4-[3-(2-methylphenyl)ureido]-phenylacetylamino}phenyl)-propanoic acid], the melting point is 190 °C (dec.).

For `COc1cc(N(C(C)=O)c2ccc([C@@H](CC(=O)O)NC(=O)CN)cc2)ccc1NC(=O)Nc1ccccc1C` [Example 10, (R)-3-[(2-amino-acetyl)amino]-3-(4-{3-methoxy-4-[3-(2-methylphenyl)ureido]phenyl-acetylamino}phenyl)propanoic acid], the melting point is 105 to 108 °C (dec.).

For the compound `COc1cc(CC(=O)Nc2ccc([C@@H](CC(=O)O)NC(=O)CCCC(=O)O)cc2)ccc1NC(=O)Nc1ccccc1C` [Example 5(h), (R)-3-(4-carboxybutanoyl-amino)-3-(4-{3-methoxy-4-[3-(2-methylphenyl)ureido]phenylacetylamino}-phenyl)-propanoic acid], the melting point was 220 to 222 °C.
